Experimental data published in PubChem BioAssay AID1963872 (Molecular Pharmacology Branch, DTP, NCI, 2024).

System: KRAS patient-derived spheroids with HUVEC/MSC, viability
Assay: Anticancer human tumor 519858-162-T-J1-PDC patient-derived colon adenocarcinoma cell line growth inhibition [KRAS2]
Settings: for IC50: curve of first compound; for viability, T/C: stronger effect = lower value
How it was run: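 Combination screen of spheroid viability in tumor-cell co-cultures with endothelial (HUVEC) and mesenchymal stem cell stroma. Each agent was tested in half-log dilutions, topping at clinical Cmax or at 10 microM without a known Cmax.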

[1] = second compound 0.1 µM, first compound 0.0316 µM
[2] = second compound 0.1 µM, first compound 0.1 µM
[3] = second compound 0.1 µM, first compound 0.316 µM
[4] = second compound 0.1 µM, first compound 1 µM
[5] = second compound 0.1 µM, first compound 3.16 µM
[6] = second compound 0.316 µM, first compound 0.0316 µM
[7] = second compound 0.316 µM, first compound 0.1 µM
[8] = second compound 0.316 µM, first compound 0.316 µM
[9] = second compound 0.316 µM, first compound 1 µM
[10] = second compound 0.316 µM, first compound 3.16 µM
[11] = second compound 1 µM, first compound 0.0316 µM
[12] = second compound 1 µM, first compound 0.1 µM
[13] = second compound 1 µM, first compound 0.316 µM
[14] = second compound 1 µM, first compound 1 µM
[15] = second compound 1 µM, first compound 3.16 µM
[16] = second compound 3.16 µM, first compound 0.0316 µM
[17] = second compound 3.16 µM, first compound 0.1 µM
[18] = second compound 3.16 µM, first compound 0.316 µM
[19] = second compound 3.16 µM, first compound 1 µM
[20] = second compound 3.16 µM, first compound 3.16 µM
[21] = second compound 10 µM, first compound 0.0316 µM
[22] = second compound 10 µM, first compound 0.1 µM
[23] = second compound 10 µM, first compound 0.316 µM
[24] = second compound 10 µM, first compound 1 µM
[25] = second compound 10 µM, first compound 3.16 µM
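Also: compound exposure lasted seven days before readout.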
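For viability, T/C in this document: 100% = DMSO vehicle control viability.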

Compound | IC50 (second compound 0.1 µM) | IC50 (second compound 0.316 µM) | IC50 (second compound 1 µM) | IC50 (second compound 3.16 µM) | IC50 (second compound 10 µM) | viability, T/C [1] | viability, T/C [2] | viability, T/C [3] | viability, T/C [4] | viability, T/C [5] | viability, T/C [6] | viability, T/C [7] | viability, T/C [8] | viability, T/C [9] | viability, T/C [10] | viability, T/C [11] | viability, T/C [12] | viability, T/C [13] | viability, T/C [14] | viability, T/C [15] | further results
CC1COCCN1c1cc(-c2ccnn2C)c2ccnc(-c3ccn[nH]3)c2n1 (stereo not given) + CNCc1ccccc1-c1csc(C(C)Nc2nc(C)nc3cc(OC)c(OC)cc23)c1 | 1.76 µM | 1.04 µM | 1.43 µM | 0.568 µM | < 0.01 µM | 90.3% | 62.7% | 82.5% | 59.9% | 39.8% | 62.8% | 83.2% | 68.6% | 48.7% | 28.4% | 89.8% | 95% | 79.7% | 58.8% | 30.6% | viability, T/C (second compound 0.1 µM, first compound 0.01 µM): 76.8%; viability, T/C (second compound 0.316 µM, first compound 0.01 µM): 95%; viability, T/C (second compound 1 µM, first compound 0.01 µM): 70.9%; viability, T/C (second compound 3.16 µM, first compound 0.01 µM): 64.1%; viability, T/C [16]: 50.8%; viability, T/C [17]: 60%; viability, T/C [18]: 70.5%; viability, T/C [19]: 39%; viability, T/C [20]: 20.4%; viability, T/C (second compound 10 µM, first compound 0.01 µM): 0.21%; viability, T/C [21]: 0.21%; viability, T/C [22]: 8.05%; viability, T/C [23]: 0.31%; viability, T/C [24]: 0.32%; viability, T/C [25]: 0.28%
CC1OCC2(CCN(c3cnc(Sc4ccnc(N)c4Cl)c(N)n3)CC2)C1N (stereo not given) + CNCc1ccccc1-c1csc(C(C)Nc2nc(C)nc3cc(OC)c(OC)cc23)c1 | > 10 µM | > 10 µM | > 10 µM | 0.0982 µM | < 0.0316 µM | 97.1% | 99.2% | 85.4% | 59.3% | 54% | 80.6% | 92% | 68% | 60.8% | 69.7% | 72.9% | 83.5% | 77.3% | 50.3% | 35.3% | viability, T/C (second compound 0.1 µM, first compound 10 µM): 60.4%; viability, T/C (second compound 0.316 µM, first compound 10 µM): 58.9%; viability, T/C (second compound 1 µM, first compound 10 µM): 66%; viability, T/C [16]: 66.6%; viability, T/C [17]: 53.9%; viability, T/C [18]: 36.1%; viability, T/C [19]: 43.1%; viability, T/C [20]: 42.7%; viability, T/C (second compound 3.16 µM, first compound 10 µM): 41.2%; viability, T/C [21]: 10.2%; viability, T/C [22]: 34.6%; viability, T/C [23]: 0.2%; viability, T/C [24]: 0.15%; viability, T/C [25]: 6.03%; viability, T/C (second compound 10 µM, first compound 10 µM): 13.6%
